The test system of experiment [1] is Aspergillus terreus ATCC 28301. Briefly: In vitro assay for antifungal activity (MIC90). To be noted: duplicate; for MIC90 (concentration at which 90% of the fungi were inhibited compared to the negative control): RPMI 1640, growth read after 48 hours; for MIC90: ATCC28301, RPMI 1640, growth read after 48 hours, read-out: MIC90 (concentration at which 90% of the fungi were inhibited compared to the negative control). In kind it is cell-based. Here is the method:
(§1) Fungal strains to be tested were inoculated onto Sabouraud dextrose agar, YM agar, and potato dextrose agar and cultured at 35° C. for two to three days. Individual single colonies of the yeast fungi selected out of the cultured strains were suspended in 5 ml of 0.85% sterile saline, followed by correction to adjust the absorbance thereof at 530 nm to 0.108. The suspensions were diluted serially by 1:50 and then 1:20 in RPMI 1640 media to prepare liquid inocula ranging in cell count from 1.0×10^3 to 5.0×10^3 CFU/ml. As for filamentous fungi, their spores were suspended in 0.85% sterile saline and the suspensions were corrected with sterile saline to show optical transmittance at 530 nm of 80 to 82%. A dilution of 1:50 was made with RPMI 1640 media to prepare liquid inocula having cell counts from […] to 5×10^4 CFU/ml.
(§2) Antifungal samples were prepared by diluting the compounds of the present inventions in RPMI 1640 media to serial concentrations from 0.0625 to 32 μg/ml. As a vehicle, DMSO was contained in a final concentration of 1% (V/V) in the antifungal samples. 0.1 ml of each of the dilutions in series was added to equal volume of each of the fungal inocula.

Experiment [2] concerns Candida glabrata ATCC 34138. Briefly: In vitro assay for antifungal activity (MIC90). It counts as cell-based. To be noted: duplicate; for MIC90 (concentration at which 90% of the fungi were inhibited compared to the negative control): RPMI 1640, growth read after 24 hours; for MIC90: Nakaseomyces glabratus, ATCC34138, RPMI 1640, growth read after 24 hours, read-out: MIC90 (concentration at which 90% of the fungi were inhibited compared to the negative control). Here is the method: as §1, §2

Experiment [3] relates to Aspergillus niger ATCC 9142. Nature of the experiment: In vitro assay for antifungal activity (MIC90). It counts as cell-based. To be noted: duplicate; for MIC90 (concentration at which 90% of the fungi were inhibited compared to the negative control): RPMI 1640, growth read after 48 hours; for MIC90: ATCC9142, RPMI 1640, growth read after 48 hours, read-out: MIC90 (concentration at which 90% of the fungi were inhibited compared to the negative control). Here is the method:
as §1, §2

Experiment [4] relates to Aspergillus fumigatus ATCC MYA-1163. Nature of the experiment: In vitro assay for antifungal activity (MIC90). It counts as cell-based. To be noted: RPMI 1640, growth read after 48 hours, duplicate; for MIC90: read-out: MIC90 (concentration at which 90% of the fungi were inhibited compared to the negative control). Here is the method:
as §1, §2

The test system of experiment [5] is Cryptococcus neoformans ATCC 4065. Nature of the experiment: In vitro assay for antifungal activity (MIC90). It counts as cell-based. To be noted: for MIC90 (concentration at which 90% of the fungi were inhibited compared to the negative control): RPMI 1640, duplicate; for MIC90: ATCC4065, RPMI 1640, duplicate, read-out: MIC90 (concentration at which 90% of the fungi were inhibited compared to the negative control). Here is the method:
as §1, §2

Experiment [6] has as its system Candida albicans ATCC 32033. Briefly: In vitro assay for antifungal activity (MIC90). In kind it is cell-based. The settings on record: duplicate; for MIC90 (concentration at which 90% of the fungi were inhibited compared to the negative control): RPMI 1640, growth read after 24 hours; for MIC90: ATCC32033, RPMI 1640, growth read after 24 hours, read-out: MIC90 (concentration at which 90% of the fungi were inhibited compared to the negative control). Here is the method:
as §1, §2

In experiment [7] the test system is Aspergillus flavus ATCC MYA-1004. Nature of the experiment: In vitro assay for antifungal activity (MIC90). In kind it is cell-based. To be noted: RPMI 1640, growth read after 48 hours, duplicate; for MIC90: read-out: MIC90 (concentration at which 90% of the fungi were inhibited compared to the negative control). Here is the method: as §1, §2
The next experiment has as its system Candida krusei ATCC 6258. Briefly: In vitro assay for antifungal activity (MIC90). It counts as cell-based. The settings on record: duplicate; for MIC90 (concentration at which 90% of the fungi were inhibited compared to the negative control): RPMI 1640, growth read after 24 hours; for MIC90: Pichia kudriavzevii, ATCC6258, RPMI 1640, growth read after 24 hours, read-out: MIC90 (concentration at which 90% of the fungi were inhibited compared to the negative control). Here is the method:
as §1, §2

In experiment [8] the test system is Candida albicans (ATCC 36082). Briefly: In vivo assay for antifungal activity (survival of infected mice). The settings on record: ICR mice infected i.v. with Candida albicans ATCC 36082; 20 mg/kg orally once a day for seven days (day 0 to day 6); groups of 10. Here is the method:
Candida albicans (ATCC 36082) was grown in YM broth on a rotary shaker (200 rpm, 26° C.) for about 12 hours to a concentration of 2.5×10^7 CFU/ml and used to infect ICR mice at a dose of 0.2 ml/head via caudal veins. Suspensions or solutions of the azole compounds in a 25% beta-hydroxypropyl methylcellulose base were orally administered at a dose of 20 mg/kg to respective infected ICR mice in groups of 10, the condition and body weights of the mice were monitored, and autopsies were finally conducted. For a negative control, the vehicle alone was used while fluconazole was administered to a positive control. The mice were inoculated once with the fungal preparation on the day of commencement of the administration. The test materials of interest and the positive control material were orally administered to the inoculated mice once a day for seven days from day 0 to day 6, with the first oral administration made five hours after the fungal inoculation (day 0). The periods of time for which the infected mice lived were counted.
The number of mice which survived the fungal infection for 21 days following the inoculation was represented as % survival for each test group, and the results are given in Table 11, below. All members of the negative control were dead 8 days after the fungal infection, while all of the groups administered with Compound 50 were dead 18 days after the fungal infection.

In brackets after ≈: the same amount, converted by molar mass.

Consider `C[C@@H](n1cc2cc(F)ccc2n1)[C@](O)(Cn1cncn1)c1ccc(F)cc1F` [Example 56], for which the “MIC90 (concentration at which 90% of the fungi were inhibited compared to the negative control)” value in experiment [1] is 2 µg/mL; in [2], 2 µg/mL; in experiment [3], 2 µg/mL; in experiment [4], 0.5 µg/mL; in [5], 0.125 µg/mL; in experiment [6], “≦0.015 μg/ml”. The “MIC90 (concentration at which 90% of the fungi were inhibited compared to the negative control)” value in [7] was found to be 2 µg/mL; in the experiment on Candida krusei ATCC 6258, 1 µg/mL.
On to `Cc1c2cc(F)ccc2nn1[C@H](C)[C@](O)(Cn1cncn1)c1ccc(F)cc1F` [Example 72], for which the “MIC90 (concentration at which 90% of the fungi were inhibited compared to the negative control)” value in experiment [1] was 4 µg/mL; in [2], 8 µg/mL; in experiment [3], 8 µg/mL; in experiment [4] it was 4 µg/mL; in experiment [5], 1 µg/mL; in experiment [6] it was 0.031 µg/mL. The “MIC90 (concentration at which 90% of the fungi were inhibited compared to the negative control)” value (in [7]; in the experiment with Candida krusei ATCC 6258) was 8 µg/mL each time.
Regarding `CCc1c2cc(F)ccc2nn1[C@H](C)[C@](O)(Cn1cncn1)c1ccc(F)cc1F` [Example 100], the “MIC90 (concentration at which 90% of the fungi were inhibited compared to the negative control)” value in experiment [1] was 16 µg/mL; in experiment [2], 8 µg/mL; in experiment [3] it was more than 16 µg/mL; in experiment [4], 16 µg/mL; in experiment [5], 0.25 µg/mL; in experiment [6], “≦0.015 μg/ml”. For the same molecule, the “MIC90 (concentration at which 90% of the fungi were inhibited compared to the negative control)” value in experiment [7] was found to be 16 µg/mL; against Candida krusei ATCC 6258, 4 µg/mL.
For `Cc1nn([C@H](C)[C@](O)(Cn2cncn2)c2ccc(F)cc2F)c2ccc([N+](=O)[O-])cc12` [Example 106, (2R,3R)-2-(2,4-Difluorophenyl)-3-(3-methyl-5-nitro-1H-indazol-1-yl)-1-(1H-1,2,4-triazol-1-yl)butan-2-ol], the MIC90 was found to be 4 µg/mL (≈ 9.34 µM) in experiment [1]; 8 µg/mL (≈ 18.7 µM) in experiment [2]; 16 µg/mL (≈ 37.3 µM) in experiment [3]; 8 µg/mL (≈ 18.7 µM) in experiment [4]; 0.5 µg/mL (≈ 1.17 µM) in [5]; 0.031 µg/mL (≈ 0.0724 µM) in experiment [6]. Moreover, the MIC90 in [7] turned out to be 8 µg/mL (≈ 18.7 µM); in the experiment with Candida krusei ATCC 6258 it was 4 µg/mL (≈ 9.34 µM).
Regarding `C[C@@H](n1ncc2cc(NCc3ccc(F)cc3)ccc21)[C@](O)(Cn1cncn1)c1ccc(F)cc1F` [Example 244], the “MIC90 (concentration at which 90% of the fungi were inhibited compared to the negative control)” value in [1] was 1 µg/mL; in experiment [2], 8 µg/mL; in [3], 2 µg/mL; in [4], 0.5 µg/mL; in experiment [5], 0.25 µg/mL; in experiment [6] it was “≦0.015 μg/ml”. In addition, the “MIC90 (concentration at which 90% of the fungi were inhibited compared to the negative control)” value (in experiment [7]; in the experiment on Candida krusei ATCC 6258) was 0.5 µg/mL each time.
With `C[C@@H](n1ncc2cc(NCc3ccc(OC(F)(F)F)cc3)ccc21)[C@](O)(Cn1cncn1)c1ccc(F)cc1F` [Example 247], the “MIC90 (concentration at which 90% of the fungi were inhibited compared to the negative control)” value in [1] is 2 µg/mL; in experiment [2], 8 µg/mL; in experiment [3], 4 µg/mL; in [4] it was 1 µg/mL; in experiment [5], 0.25 µg/mL; in experiment [6] it was “≦0.015 μg/ml”. Also, the results for the “MIC90 (concentration at which 90% of the fungi were inhibited compared to the negative control)” value (in experiment [7]; in the experiment with Candida krusei ATCC 6258) were 1 µg/mL and 0.5 µg/mL, respectively.
Turning to `C[C@@H](n1ncc2cc(NCc3ccc(F)cc3F)ccc21)[C@](O)(Cn1cncn1)c1ccc(F)cc1F` [Example 250], the “MIC90 (concentration at which 90% of the fungi were inhibited compared to the negative control)” value in experiment [1] was 2 µg/mL; in experiment [2] it was 8 µg/mL; in experiment [3], 4 µg/mL; in experiment [4], 1 µg/mL; in [5], 0.25 µg/mL; in [6], “≦0.015 μg/ml”. In addition, the “MIC90 (concentration at which 90% of the fungi were inhibited compared to the negative control)” value (in [7]; in the experiment with Candida krusei ATCC 6258) was 0.5 µg/mL throughout.
Consider `C[C@@H](n1ncc2cc(NCC3CCCCC3)ccc21)[C@](O)(Cn1cncn1)c1ccc(F)cc1F` [Example 309], for which the “MIC90 (concentration at which 90% of the fungi were inhibited compared to the negative control)” value in experiment [1] is 4 µg/mL; in [2] it was 8 µg/mL; in [3] it was 16 µg/mL; in experiment [4] it was 8 µg/mL; in [5], 0.5 µg/mL; in [6], “≦0.015 μg/ml”. Also, the entries for the “MIC90 (concentration at which 90% of the fungi were inhibited compared to the negative control)” value (in experiment [7]; against Candida krusei ATCC 6258) were 2 µg/mL and 1 µg/mL, respectively.
Regarding `OC(Cn1cncn1)(Cn1cncn1)c1ccc(F)cc1F` [Fluconazole, fluconazole, reference compound], the “% Survival on Day 21” value in [8] is on record as 20%. Further, the MIC90 in experiment [1] was more than 128 µg/mL; in experiment [2], more than 32 µg/mL; in experiment [3], more than 128 µg/mL; in experiment [4], more than 128 µg/mL; in experiment [5], 8 µg/mL (≈ 26.1 µM); in [6], 1 µg/mL (≈ 3.27 µM). The MIC90 in experiment [7] is more than 128 µg/mL; with Candida krusei ATCC 6258, more than 8 µg/mL.

The values above are taken from US7812045B2, “Antifungal triazole derivatives” (Daewoong Pharmaceutical Co., Ltd., priority 2005, dated 2010).
